Experimental data as given in PubChem BioAssay (NCI).
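Five concentrations, 48 hours, 96-well plates. At the TGI there is no net growth.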 Where a SMILES comes first, the peptide text is derived from it. [ ]: non-standard residue; d: D form. The star is where a group is joined. NMeV = CN[C@H](C(=O)O)C(C)C; X29 = COc1ccc(CN*)c(OC)c1; Octanoyl = CCCCCCCC(=O)*; dNMeA = CN[C@H](C)C(=O)O

Tests used:
Test in all cases: NCI-60 cell line screen, 48 h
SK-MEL-5 melanoma = tested on: SK-MEL-5 melanoma
NCI/ADR-RES ovarian = tested on: NCI/ADR-RES ovarian
MOLT-4 leukemia = tested on: MOLT-4 leukemia
SN12C renal = tested on: SN12C renal
KM12 colon = tested on: KM12 colon
SR leukemia = tested on: SR leukemia
SF-539 CNS = tested on: SF-539 CNS
HT29 colon = tested on: HT29 colon
MCF7 breast = tested on: MCF7 breast
HCT-116 colon = tested on: HCT-116 colon
MDA-MB-231 breast = tested on: MDA-MB-231 breast
MDA-MB-435 = tested on: MDA-MB-435
CCRF-CEM leukemia = tested on: CCRF-CEM leukemia
M14 melanoma = tested on: M14 melanoma
NCI-H226 lung = tested on: NCI-H226 lung

| Structure (SMILES) | TGI (SK-MEL-5 melanoma) [µM] | TGI (NCI/ADR-RES ovarian) [µM] | TGI (MOLT-4 leukemia) [µM] | TGI (SN12C renal) [µM] | TGI (KM12 colon) [µM] | TGI (SR leukemia) [µM] | TGI (SF-539 CNS) [µM] | TGI (HT29 colon) [µM] | TGI (MCF7 breast) [µM] | TGI (HCT-116 colon) [µM] | TGI (MDA-MB-231 breast) [µM] | TGI (MDA-MB-435) [µM] | TGI (CCRF-CEM leukemia) [µM] | TGI (M14 melanoma) [µM] | TGI (NCI-H226 lung) [µM] |
| --- | --- | --- | --- | --- | --- | --- | --- | --- | --- | --- | --- | --- | --- | --- | --- |
| CCCCn1c(N)c(-c2nc3ccccc3o2)sc1=S | 34.9 | 46.8 | > 100 | 54.3 | > 100 | > 100 | 23.2 | 78 | > 100 | 24.6 | 34.3 | 38.5 | > 100 | > 100 | 43.1 |
| O=C(c1ccccc1)c1ccc2nc(-c3c(Cl)c(Cl)c(Cl)c(Cl)c3C(=O)N/N=C/c3ccc(Cl)cc3)[nH]c2c1 | 45.7 | > 100 | > 100 | > 100 | > 100 | > 100 | > 100 | > 100 | 71.8 | > 100 | 61.4 | > 100 | 71.3 | > 100 | > 100 |
| CCC1(c2ccccc2)C(=O)N=C(c2ccccc2)N1CCc1ccccc1 (stereo not given) | > 100 | > 100 | > 100 | > 100 | > 100 | > 100 | > 100 | > 100 | > 100 | > 100 | > 100 | > 100 | > 100 | > 100 | > 100 |
| CCN1C(=O)c2cc(OC)c(OC)cc2C(=O)C12OC(=O)c1cc3c(cc12)OCO3 (stereo not given) | > 100 | > 100 | > 100 | > 100 | > 100 | > 100 | > 100 | > 100 | > 100 | > 100 | > 100 | > 100 | > 100 | > 100 | > 100 |
| Cc1cc(C)c(-n2[nH]c(=O)n(C)c2=O)c(C)c1 | > 100 | > 100 | > 100 | > 100 | > 100 | > 100 | > 100 | > 100 | > 100 | > 100 | > 100 | > 100 | > 100 | > 100 | > 100 |
| CC1=NN(C(=O)c2ccncc2)C(=O)C1 | > 100 | > 100 | > 100 | > 100 | > 100 | > 100 | > 100 | > 100 | > 100 | > 100 | > 100 | > 100 | > 100 | > 100 | > 100 |
| C/C(=N\Nc1ccc([N+](=O)[O-])cc1[N+](=O)[O-])c1sc(-n2nc(-c3ccccc3)cc2-c2ccccc2)nc1C | > 100 | 69.8 | 46.8 | > 100 | > 100 | 46.8 | > 100 | 33.8 | > 100 | > 100 | > 100 | > 100 | 50.9 | > 100 | > 100 |
| CC1(/C=C/CCSc2ccccc2)CC(=O)C2CC1C2(C)C (stereo not given) | 23 | > 61.8 | > 40.5 | 45.6 | 54.4 | 16.9 | 31.5 | 29.4 | > 100 | > 100 | > 100 | > 87.6 | 31 | > 100 | > 100 |
| O=C(O)C12C3CCC(CC3)C1(C(=O)O)C1CCC2C1 (stereo not given) | > 100 | > 100 | > 100 | > 100 | > 100 | > 100 | > 100 | > 100 | > 100 | > 100 | > 100 | > 100 | > 100 | > 100 | > 100 |
| COC1=CC(=O)C2=C(C1=O)[C@H]1CC[C@]3(C)[C@@H](O)CC[C@H]3[C@@H]1CC2 | 28.8 | 84 | 20.8 | 30.6 | 32.3 | 55.4 | 30.6 | 19 | 30.7 | 30.7 | 5.84 | 33.3 | 86.2 | 31.3 | 31.5 |
| CN1c2ccccc2C(=O)NC12CCN(CCCC(=O)c1ccc(F)cc1)CC2 | 79.6 | > 100 | 71.2 | > 100 | > 100 | > 100 | > 100 | 56.1 | > 100 | > 100 | > 100 | > 100 | > 100 | 32.5 | > 100 |
| CCCCCCCC(=O)N[C@H](C(=O)N[C@H](C(=O)N(C)[C@H](C(=O)N1CCC[C@H]1C(=O)N(C)[C@H](C)C(=O)NCc1ccc(OC)cc1OC)C(C)C)C(C)C)C(C)C (Octanoyl-VV[NMeV]P[dNMeA]-X29) | 13 | > 100 | > 90.4 | > 100 | > 100 | > 65.6 | > 60.4 | > 85.2 | 42.8 | > 50.1 | 35.5 | 28.9 | > 72.9 | > 68.1 | 27.5 |
